Legend:
[1] = system: Coriolus versicolor; experiment: Toxic limit values on impregnated wood discs (method after Sutter), beech wood; assay type: cell-based; conditions: Coriolus versicolor (Buche)
Excerpt: (§1) Bestimmung der toxischen Grenzwerte (kg/m^3 Holz) der Wirkstoffe gemäß Beispiel 1 und 2 für Coniophora puteana bzw. Coriolus versicolor auf Kiefern- bzw. Buchenholz. Die Bestimmung der toxischen Grenzwerte erfolgt in Anlehnung an die von H.P. Sutter, Int. Biodeterioration Bulletin 14 (3), 1978, Seiten 95 bis 99, beschriebenen Methode.
(§2) Für die Tests werden jeweils frisch geschnittene dünne Stirnholzscheibchen (Größe 40 x 40 mm, Dicke etwa 2 mm) im Vakuum mit Lösungen unterschiedlich definierter Wirkstoffkonzentration getränkt. Die Menge des absorbierten Wirkstoffs in kg/m^3 Holz wird aus der Retention der Lösung (durch Einzelwägung der Holzproben vor und nach der Imprägnierung bestimmt), der Holzdichte und der Konzentration des Wirkstoffs in der verwendeten Imprägnierlösung errechnet.
(§3) Je 5 der 15 getrockneten Prüflinge einer Wirkstoffkonzentration werden dem Pilzangriff ohne Belastung ausgesetzt, 5 weitere Proben werden vorher im Windkanal (Windgeschwindigkeit: 1 + 0,1 m/sec; Temp.: 40 + 2°C) 4 Wochen lang belastet, 5 andere Prüflinge werden einer Wässerung in Anlehnung an DIN EN 84 unterzogen (14 Tage Lagerung in dest. Wasser bei 20°C, 9-maliger Wasserwechsel).
(§4) Für den mykologischen Test werden die Prüflinge nach Sterilisieren mit Propylenoxid einzeln auf das voll entwickelte Pilzmycel des Prüfpilzes auf Malzextraktagar in Petrischalen aufgelegt, durch Distanzhalter beträgt der Abstand zwischen Agaroberfläche und Probe ca. 5 mm. Nach 6wöchiger Lagerung bei 21-23°C wird der Zerstörungsgrad der Prüfling visuell beurteilt.
(§5) Als Grenzwerte der toxischen Wirkung werden die beiden Konzentrationen des Wirkstoffs in kg/m^3 Holz ermittelt, bei denen das Holz gerade noch und nicht mehr angegriffen wird.
(§6) In der folgenden Tabelle sind die Mittelwerte der Toxizitätsgrenzwerte für die erfindungsgemäßen Substanzen gemäß Beispiel 1 und 2 sowie für den bekannten Wirkstoff Dichlorfluonid für zwei Prüfpilze und zwei verschiedene Holzarten angegeben.
(§7) Mittlere Toxizitätsgrenzen (kg/m^3 Holz) von Wirkstoffen gemäß Beispiel 1 und 2 für holzzerstörende Pilze.

[2] = Solubility in organic solvents for wood preservatives; assay type: physicochemical; conditions: for Löslichkeit (%) in Shellsol AB: solvent Shellsol AB; for Löslichkeit (%) in Testbenzin: solvent Testbenzin
Excerpt: Löslichkeiten erfindungsgemäßer Wirkstoffe nach Beispiel 1 und 2 im Vergleich zum handelsüblichen Dichlofluanid in organischen Lösungsmitteln für Holzschutzmittel
(Testbenzin und Shellsol AB sind handelsübliche niedrigsiedende Kohlenwasserstoffe).

[3] = system: Coniophora puteana; experiment: Toxic limit values on impregnated wood discs (method after Sutter), pine wood; assay type: cell-based; conditions: Coniophora puteana (Kiefer)
Excerpt: as §1, §2, §3, §4, §5, §6, §7

[4] = nach Belüftung (wind tunnel 4 weeks, 40°C)
[5] = nach Wässerung (14 days in distilled water, 20°C)
[6] = ohne Belastung, 6 weeks at 21-23°C

Row | Compound | Mittlere Toxizitätsgrenzen [1, 4] | Mittlere Toxizitätsgrenzen [1, 5] | Mittlere Toxizitätsgrenzen [1, 6] | Löslichkeit (%) in Shellsol AB [2] | Löslichkeit (%) in Testbenzin [2] | Mittlere Toxizitätsgrenzen [3, 4] | Mittlere Toxizitätsgrenzen [3, 5] | Mittlere Toxizitätsgrenzen [3, 6]
1 | CCN(CC)S(=O)(=O)N(SC(F)(Cl)Cl)c1ccccc1 [Beispiel 1, N,N-Diethyl-N'-phenyl-N'-(dichlorfluormethylthio)-sulfamid] | 2,7 kg/m^3 Holz | 1,1 kg/m^3 Holz | 0,6 kg/m^3 Holz | 71% | 16% | 2,0 kg/m^3 Holz | 0,8 kg/m^3 Holz | 0,4 kg/m^3 Holz
2 | CCN(CC)S(=O)(=O)N(SC(F)(Cl)Cl)c1ccc(C)cc1 [Beispiel 2, N,N-Diethyl-N'-(p-tolyl)-N'-(dichlorfluormethylthio)-sulfamid] |  |  | 1,5 kg/m^3 Holz | 67% | 59% |  |  | 0,7 kg/m^3 Holz
3 | CN(C)S(=O)(=O)N(SC(F)(Cl)Cl)c1ccccc1 [Dichlofluanid, N,N-Dimethyl-N'-phenyl-N'-(fluordichlormethylthio)-sulfamid, reference compound] | 3,5 kg/m^3 Holz | 3,2 kg/m^3 Holz | 2,5 kg/m^3 Holz | 6% | 1,2% | 3,7 kg/m^3 Holz | 2,4 kg/m^3 Holz | 1,9 kg/m^3 Holz

Source: EP0170168A2, “N,N,-diethyl, N'-aryl, N'-(dichlorfluormethylthio)sulfamide-microbiocides” (BAYER AG, priority 1984, dated 1986)
